Where “and” joins values, the source holds several entries; their conditions need not be identical. Identical values can stand only once.
System: TLR signalling pathway genes
Assay: Toll-like Receptor Pathway PCR array of ankles
Format: in vivo, C57BL/6 mice
Conditions: for S40/SIA (fold change) / log2(fold change) S40/SIA: S40 group vs SIA group
Protocol: Total RNA was isolated from the right ankles using the TRIzol Reagent (Invitrogen) and purified with RNeasy Mini Kit and RNase-Free DNase Set (Qiagen). RNA quality was determined using a spectrophotometer and was reversely transcribed using Wcgene® mRNA cDNA kit. The complementary DNA was used on the Toll-like Receptor Pathway PCR Array plate (Wcgene® biotech, China).

Which results are given for `C=C1C(OC(=O)c2ccccc2)CC2C(C=C(C)C(=O)C3(OC(C)=O)CC(C)C(OC(=O)c4ccccc4)C3C1OC(C)=O)C2(C)C` (stereo not shown) [EFL2, Euphorbia factor L2]?
S40/SIA (fold change) (Irak2 mRNA): 0.4814; log2(fold change) S40/SIA (Irak2 mRNA): -1.055; fold-GAPDH, Irak3 (Irak3 mRNA in ankles of STA mice, relative to GAPDH, one value per animal (samples S401-S405)): 0.01639 and 0.02176 and 0.01462 and 0.00868; S40/SIA (fold change) (Irak3 mRNA): 0.4891; log2(fold change) S40/SIA (Irak3 mRNA): -1.032; fold-GAPDH, Irak4 (Irak4 mRNA in ankles of STA mice, relative to GAPDH, one value per animal (samples S401-S405)): 0.005444 and 0.007871 and 0.004771 and 0.003248; fold-GAPDH, Irf1 (Irf1 mRNA in ankles of STA mice, relative to GAPDH, one value per animal (samples S401-S405)): 0.006938 and 0.008232; S40/SIA (fold change) (Irf1 mRNA): 0.3319; log2(fold change) S40/SIA (Irf1 mRNA): -1.591; fold-GAPDH, Irf3 (Irf3 mRNA in ankles of STA mice, relative to GAPDH, one value per animal (samples S401-S405)): 0.01116 and 0.01143 and 0.004857; S40/SIA (fold change) (Irf3 mRNA): 0.3241; log2(fold change) S40/SIA (Irf3 mRNA): -1.626; fold-GAPDH, Jun (Jun mRNA in ankles of STA mice, relative to GAPDH, one value per animal (samples S401-S405)): 0.04078 and 0.0443 and 0.03642 and 0.03036; S40/SIA (fold change) (Jun mRNA): 0.3678; log2(fold change) S40/SIA (Jun mRNA): -1.443; fold-GAPDH, Ly86 (Ly86 mRNA in ankles of STA mice, relative to GAPDH, one value per animal (samples S401-S405)): 0.008619 and 0.01651 and 0.01407 and 0.001011; fold-GAPDH, Ly96 (Ly96 mRNA in ankles of STA mice, relative to GAPDH, one value per animal (samples S401-S405)): 0.00648 and 0.008818 and 0.008037 and 0.003545; S40/SIA (fold change) (Ly96 mRNA): 0.3878; log2(fold change) S40/SIA (Ly96 mRNA): -1.367; fold-GAPDH, Map2k3 (Map2k3 mRNA in ankles of STA mice, relative to GAPDH, one value per animal (samples S401-S405)): 0.0383 and 0.04062 and 0.04366 and 0.0009844; fold-GAPDH, Map2k4 (Map2k4 mRNA in ankles of STA mice, relative to GAPDH, one value per animal (samples S401-S405)): 0.006054 and 0.009032 and 0.01171 and 0.005161; S40/SIA (fold change) (Map2k4 mRNA): 0.8651; log2(fold change) S40/SIA (Map2k4 mRNA): -0.209; fold-GAPDH, Map3k1 (Map3k1 mRNA in ankles of STA mice, relative to GAPDH, one value per animal (samples S401-S405)): 0.006062 and 0.005781 and 0.1236; fold-GAPDH, Map3k7 (Map3k7 mRNA in ankles of STA mice, relative to GAPDH, one value per animal (samples S401-S405)): 0.01592 and 0.021 and 0.01646 and 0.01133; fold-GAPDH, Mapk8ip3 (Mapk8ip3 mRNA in ankles of STA mice, relative to GAPDH, one value per animal (samples S401-S405)): 0.001064 and 0.001038; fold-GAPDH, Mapk8 (Mapk8 mRNA in ankles of STA mice, relative to GAPDH, one value per animal (samples S401-S405)): 0.01945 and 0.02479 and 0.0101; fold-GAPDH, Mapk9 (Mapk9 mRNA in ankles of STA mice, relative to GAPDH, one value per animal (samples S401-S405)): 0.001275 and 0.001267 and 0.00173 and 0.000754; fold-GAPDH, Muc13 (Muc13 mRNA in ankles of STA mice, relative to GAPDH, one value per animal (samples S401-S405)): 6.559e-5 and 0.0002674 and 0.000223 and 0.0001076; fold-GAPDH, Myd88 (Myd88 mRNA in ankles of STA mice, relative to GAPDH, one value per animal (samples S401-S405)): 0.009066 and 0.0089 and 0.006533 and 0.004478; S40/SIA (fold change) (Myd88 mRNA): 0.1447; log2(fold change) S40/SIA (Myd88 mRNA): -2.789; fold-GAPDH, Nfkb1 (Nfkb1 mRNA in ankles of STA mice, relative to GAPDH, one value per animal (samples S401-S405)): 0.02137 and 0.03037 and 0.044 and 0.01259; fold-GAPDH, Nfkb2 (Nfkb2 mRNA in ankles of STA mice, relative to GAPDH, one value per animal (samples S401-S405)): 0.005983 and 0.008129 and 0.004372 and 0.004079; S40/SIA (fold change) (Nfkb2 mRNA): 0.2395; log2(fold change) S40/SIA (Nfkb2 mRNA): -2.062; fold-GAPDH, Nfkbia (Nfkbia mRNA in ankles of STA mice, relative to GAPDH, one value per animal (samples S401-S405)): 0.03064 and 0.03111 and 0.02056 and 0.01675; S40/SIA (fold change) (Nfkbia mRNA): 0.2445; log2(fold change) S40/SIA (Nfkbia mRNA): -2.032; fold-GAPDH, Nfkbib (Nfkbib mRNA in ankles of STA mice, relative to GAPDH, one value per animal (samples S401-S405)): 0.00388 and 0.005737 and 0.004539 and 0.002397; S40/SIA (fold change) (Nfkbib mRNA): 0.4073; log2(fold change) S40/SIA (Nfkbib mRNA): -1.2959; fold-GAPDH, Nfrkb (Nfrkb mRNA in ankles of STA mice, relative to GAPDH, one value per animal (samples S401-S405)): 0.003341 and 0.001769 and 0.003291; fold-GAPDH, Nr2c2 (Nr2c2 mRNA in ankles of STA mice, relative to GAPDH, one value per animal (samples S401-S405)): 0.008167 and 0.009954 and 0.006912 and 0.004742; S40/SIA (fold change) (Nr2c2 mRNA): 0.5521; log2(fold change) S40/SIA (Nr2c2 mRNA): -0.8571; fold-GAPDH, Peli1 (Peli1 mRNA in ankles of STA mice, relative to GAPDH, one value per animal (samples S401-S405)): 0.01623 and 0.02035 and 0.01296 and 0.0006428; S40/SIA (fold change) (Peli1 mRNA): 0.462; log2(fold change) S40/SIA (Peli1 mRNA): -1.114; fold-GAPDH, Pglyrp1 (Pglyrp1 mRNA in ankles of STA mice, relative to GAPDH, one value per animal (samples S401-S405)): 0.001422 and 0.0004159 and 0.002383; S40/SIA (fold change) (Pglyrp1 mRNA): 0.2161; log2(fold change) S40/SIA (Pglyrp1 mRNA): -2.21; fold-GAPDH, Ppara (Ppara mRNA in ankles of STA mice, relative to GAPDH, one value per animal (samples S401-S405)): 0.001398 and 0.003006 and 0.002272 and 0.0004292; fold-GAPDH, Ptgs2 (Ptgs2 mRNA in ankles of STA mice, relative to GAPDH, one value per animal (samples S401-S405)): 0.001434 and 0.000397 and 0.0002674 and 0.0003018; S40/SIA (fold change) (Ptgs2 mRNA): 0.03786; log2(fold change) S40/SIA (Ptgs2 mRNA): -4.723; S40/SIA (fold change) (Rel mRNA): 0.2762; log2(fold change) S40/SIA (Rel mRNA): -1.8562; S40/SIA (fold change) (Ticam1 mRNA): 0.59; log2(fold change) S40/SIA (Ticam1 mRNA): -0.7611; S40/SIA (fold change) (Tlr2 mRNA): 0.1682; log2(fold change) S40/SIA (Tlr2 mRNA): -2.571; S40/SIA (fold change) (Tlr3 mRNA): 0.7859; log2(fold change) S40/SIA (Tlr3 mRNA): -0.3477; S40/SIA (fold change) (Tlr4 mRNA): 0.5705; log2(fold change) S40/SIA (Tlr4 mRNA): -0.8096; S40/SIA (fold change) (Tlr5 mRNA): 0.188; log2(fold change) S40/SIA (Tlr5 mRNA): -2.411; S40/SIA (fold change) (Tlr7 mRNA): 0.09461; log2(fold change) S40/SIA (Tlr7 mRNA): -3.402
